Experimental data reported in ChEMBL document CHEMBL1201862, “PubChem BioAssay data set” (2004).
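Results reflect a 48-hour exposure of cells in 96-well plates to compound at five concentrations. The concentration for 50% growth inhibition is given as GI50.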 The source made the active and inactive calls. Rule as the data show it: active = GI50 up to about 1.1 µM and inactive = higher.

Key:
Assay in all cases: inhibition of tumour cell growth, NCI panel, 48 h
OVCAR-4 = tested on: OVCAR-4
SF-539 = tested on: SF-539
MDA-N = tested on: MDA-N
MCF7 = tested on: MCF7
RPMI-8226 = tested on: RPMI-8226
EKVX = tested on: EKVX
HCT-116 = tested on: HCT-116
HOP-92 = tested on: HOP-92
SR = tested on: SR
IGROV-1 = tested on: IGROV-1
A549 = tested on: A549
DU-145 = tested on: DU-145
MDA-MB-231 = tested on: MDA-MB-231
MOLT-4 = tested on: MOLT-4
OVCAR-3 = tested on: OVCAR-3
SF-268 = tested on: SF-268
KM12 = tested on: KM12
T47D = tested on: T47D
UACC-62 = tested on: UACC-62
SK-MEL-5 = tested on: SK-MEL-5
NCI/ADR-RES = tested on: NCI/ADR-RES
HOP-62 = tested on: HOP-62
SNB-19 = tested on: SNB-19
SK-MEL-2 = tested on: SK-MEL-2
HCC 2998 = tested on: HCC 2998
CCRF-CEM = tested on: CCRF-CEM
SNB-75 = tested on: SNB-75
ACHN = tested on: ACHN
U-251 = tested on: U-251
K562 = tested on: K562
BT-549 = tested on: BT-549
SK-OV-3 = tested on: SK-OV-3
Malme-3M = tested on: Malme-3M
A498 = tested on: A498
HCT-15 = tested on: HCT-15
NCI-H226 = tested on: NCI-H226
CAKI-1 = tested on: CAKI-1
OVCAR-8 = tested on: OVCAR-8
UO-31 = tested on: UO-31
NCI-H460 = tested on: NCI-H460
UACC-257 = tested on: UACC-257
PC-3 = tested on: PC-3
RXF 393 = tested on: RXF 393
NCI-H23 = tested on: NCI-H23
SW-620 = tested on: SW-620
COLO 205 = tested on: COLO 205
SF-295 = tested on: SF-295
HT-29 = tested on: HT-29
NCI-H522 = tested on: NCI-H522
SK-MEL-28 = tested on: SK-MEL-28
Hs-578T = tested on: Hs-578T
TK-10 = tested on: TK-10
LOX IMVI = tested on: LOX IMVI
M14 = tested on: M14
SN12C = tested on: SN12C
OVCAR-5 = tested on: OVCAR-5
MDA-MB-435 = tested on: MDA-MB-435
786-0 = tested on: 786-0
HL-60 = tested on: HL-60

Compound: Cc1cc2nc3c(N)nn(CCN(C)C)c3nc2cc1C
- GI50 (OVCAR-4): 40.6 µM (inactive)
- GI50 (SF-539): 28.1 µM (inactive)
- GI50 (MDA-N): 50.8 µM (inactive)
- GI50 (MCF7): 29.2 µM (inactive)
- GI50 (RPMI-8226): 63.7 µM (inactive)
- GI50 (EKVX): 58.7 µM (inactive)
- GI50 (HCT-116): 33.1 µM (inactive)
- GI50 (HOP-92): 38.5 µM (inactive)
- GI50 (SR): > 100 µM (inactive)
- GI50 (IGROV-1): 27 µM (inactive)
- GI50 (A549): 31.9 µM (inactive)
- GI50 (DU-145): 40.8 µM (inactive)
- GI50 (MDA-MB-231): 33.8 µM (inactive)
- GI50 (MOLT-4): 41.8 µM (inactive)
- GI50 (OVCAR-3): 55 µM (inactive)
- GI50 (SF-268): 38.5 µM (inactive)
- GI50 (KM12): 45.5 µM (inactive)
- GI50 (T47D): 42.3 µM (inactive)
- GI50 (UACC-62): 39.5 µM (inactive)
- GI50 (SK-MEL-5): 24.6 µM (inactive)
- GI50 (NCI/ADR-RES): 33.3 µM (inactive)
- GI50 (HOP-62): 26.4 µM (inactive)
- GI50 (SNB-19): 40.7 µM (inactive)
- GI50 (SK-MEL-2): 39 µM (inactive)
- GI50 (HCC 2998): 51.6 µM (inactive)
- GI50 (CCRF-CEM): 42.3 µM (inactive)
- GI50 (SNB-75): 27.4 µM (inactive)
- GI50 (ACHN): 28.4 µM (inactive)
- GI50 (U-251): 33.1 µM (inactive)
- GI50 (K562): 83.4 µM (inactive)
- GI50 (BT-549): 57.9 µM (inactive)
- GI50 (SK-OV-3): 45.2 µM (inactive)
- GI50 (Malme-3M): 34.2 µM (inactive)
- GI50 (A498): 38.3 µM (inactive)
- GI50 (HCT-15): 36.4 µM
- GI50 (NCI-H226): 11.2 µM (inactive)
- GI50 (CAKI-1): 39.3 µM (inactive)
- GI50 (OVCAR-8): 33.8 µM (inactive)
- GI50 (UO-31): 29 µM (inactive)
- GI50 (NCI-H460): 32.8 µM (inactive)
- GI50 (UACC-257): 41.7 µM (inactive)
- GI50 (PC-3): 44.3 µM (inactive)
- GI50 (RXF 393): 30.4 µM (inactive)
- GI50 (NCI-H23): 38.2 µM (inactive)
- GI50 (SW-620): 38.7 µM (inactive)
- GI50 (COLO 205): 28.1 µM (inactive)
- GI50 (SF-295): 78.7 µM (inactive)
- GI50 (HT-29): 27.4 µM (inactive)
- GI50 (NCI-H522): 40.1 µM (inactive)
- GI50 (SK-MEL-28): 53.7 µM (inactive)
- GI50 (Hs-578T): 40.2 µM (inactive)
- GI50 (TK-10): 41.4 µM (inactive)
- GI50 (LOX IMVI): 25.9 µM (inactive)
- GI50 (M14): 61.2 µM (inactive)
- GI50 (SN12C): 36.7 µM (inactive)
- GI50 (OVCAR-5): 52 µM (inactive)
- GI50 (MDA-MB-435): 37.9 µM (inactive)
- GI50 (786-0): 40.1 µM (inactive)

Compound: O=C1C=CC(O)(C#CCO)C=C1
- GI50 (OVCAR-4): 11.9 µM (inactive)
- GI50 (SF-539): 17 µM (inactive)
- GI50 (MDA-N): 8.57 µM (inactive)
- GI50 (MCF7): 4.33 µM (inactive)
- GI50 (RPMI-8226): 3.74 µM (inactive)
- GI50 (HL-60): 3.17 µM (inactive)
- GI50 (EKVX): 18.4 µM (inactive)
- GI50 (HCT-116): 15.8 µM (inactive)
- GI50 (HOP-92): 2.59 µM (inactive)
- GI50 (SR): 2.98 µM (inactive)
- GI50 (IGROV-1): 13 µM (inactive)
- GI50 (A549): 23.8 µM (inactive)
- GI50 (DU-145): 16 µM (inactive)
- GI50 (MDA-MB-231): 18.7 µM (inactive)
- GI50 (MOLT-4): 10.3 µM (inactive)
- GI50 (OVCAR-3): 17 µM (inactive)
- GI50 (SF-268): 17.6 µM (inactive)
- GI50 (KM12): 17.5 µM (inactive)
- GI50 (T47D): 15.2 µM (inactive)
- GI50 (UACC-62): 15.6 µM (inactive)
- GI50 (SK-MEL-5): 24.3 µM (inactive)
- GI50 (NCI/ADR-RES): 6.73 µM (inactive)
- GI50 (HOP-62): 30.5 µM (inactive)
- GI50 (SNB-19): 22 µM (inactive)
- GI50 (SK-MEL-2): 17.4 µM (inactive)
- GI50 (HCC 2998): 17.5 µM (inactive)
- GI50 (CCRF-CEM): 11.6 µM (inactive)
- GI50 (SNB-75): 21.3 µM (inactive)
- GI50 (ACHN): 13.2 µM (inactive)
- GI50 (U-251): 11.6 µM (inactive)
- GI50 (K562): 2.92 µM (inactive)
- GI50 (BT-549): 12 µM (inactive)
- GI50 (SK-OV-3): 58.1 µM (inactive)
- GI50 (A498): 22.4 µM (inactive)
- GI50 (HCT-15): 2.69 µM
- GI50 (NCI-H226): 13.4 µM (inactive)
- GI50 (CAKI-1): 4.02 µM (inactive)
- GI50 (OVCAR-8): 13.3 µM (inactive)
- GI50 (UO-31): 13.5 µM (inactive)
- GI50 (NCI-H460): 21.2 µM (inactive)
- GI50 (UACC-257): 14.6 µM (inactive)
- GI50 (PC-3): 16.9 µM (inactive)
- GI50 (RXF 393): 4.02 µM (inactive)
- GI50 (NCI-H23): 16.9 µM (inactive)
- GI50 (SW-620): 4.62 µM (inactive)
- GI50 (COLO 205): 6.85 µM (inactive)
- GI50 (SF-295): 39.3 µM (inactive)
- GI50 (HT-29): 14.3 µM (inactive)
- GI50 (NCI-H522): 1.95 µM (inactive)
- GI50 (SK-MEL-28): 12.9 µM (inactive)
- GI50 (Hs-578T): 29.2 µM (inactive)
- GI50 (TK-10): 13.1 µM (inactive)
- GI50 (LOX IMVI): 10.5 µM (inactive)
- GI50 (M14): 19.5 µM (inactive)
- GI50 (SN12C): 15.9 µM (inactive)
- GI50 (OVCAR-5): 12.1 µM (inactive)
- GI50 (MDA-MB-435): 12.4 µM (inactive)
- GI50 (786-0): 9.91 µM (inactive)

Compound: COc1cccc(-c2cc(O)c3cccnc3n2)c1
- GI50 (OVCAR-4): > 40.5 µM (inactive)
- GI50 (SF-539): 0.102 µM (active)
- GI50 (MDA-N): 0.0159 µM (active)
- GI50 (MCF7): 0.488 µM (active)
- GI50 (RPMI-8226): 0.195 µM (active)
- GI50 (HL-60): 0.0261 µM (active)
- GI50 (HCT-116): 0.0546 µM (active)
- GI50 (HOP-92): 0.0776 µM (active)
- GI50 (SR): 0.0614 µM (active)
- GI50 (IGROV-1): 0.432 µM (active)
- GI50 (A549): 0.102 µM (active)
- GI50 (DU-145): 0.556 µM (active)
- GI50 (MDA-MB-231): 1.27 µM (inactive)
- GI50 (MOLT-4): 0.221 µM (active)
- GI50 (OVCAR-3): 0.0571 µM (active)
- GI50 (SF-268): 0.611 µM (active)
- GI50 (KM12): 0.0581 µM (active)
- GI50 (T47D): > 100 µM (inactive)
- GI50 (UACC-62): 0.0662 µM (active)
- GI50 (SK-MEL-5): 0.0546 µM (active)
- GI50 (NCI/ADR-RES): 0.0617 µM (active)
- GI50 (HOP-62): 0.104 µM (active)
- GI50 (SNB-19): 0.213 µM (active)
- GI50 (SK-MEL-2): > 100 µM (inactive)
- GI50 (HCC 2998): 0.251 µM (active)
- GI50 (CCRF-CEM): 0.0603 µM (active)
- GI50 (SNB-75): 0.0857 µM (active)
- GI50 (ACHN): 0.179 µM (active)
- GI50 (U-251): 0.0984 µM (active)
- GI50 (K562): 0.0339 µM (active)
- GI50 (BT-549): > 100 µM (inactive)
- GI50 (Malme-3M): > 100 µM (inactive)
- GI50 (A498): 0.516 µM (active)
- GI50 (HCT-15): 0.0873 µM
- GI50 (NCI-H226): 0.325 µM (active)
- GI50 (CAKI-1): 0.0984 µM (active)
- GI50 (OVCAR-8): 0.235 µM (active)
- GI50 (UO-31): 12.3 µM (inactive)
- GI50 (NCI-H460): 0.1 µM (active)
- GI50 (UACC-257): > 100 µM (inactive)
- GI50 (PC-3): 0.158 µM (active)
- GI50 (RXF 393): 0.229 µM (active)
- GI50 (NCI-H23): 0.204 µM (active)
- GI50 (SW-620): 0.0809 µM (active)
- GI50 (COLO 205): 0.0771 µM (active)
- GI50 (SF-295): 0.075 µM (active)
- GI50 (HT-29): 0.0543 µM (active)
- GI50 (NCI-H522): 0.0698 µM (active)
- GI50 (SK-MEL-28): 0.234 µM (active)
- GI50 (Hs-578T): 0.092 µM (active)
- GI50 (TK-10): > 100 µM (inactive)
- GI50 (LOX IMVI): 0.0867 µM (active)
- GI50 (M14): 0.0575 µM (active)
- GI50 (SN12C): 0.406 µM (active)
- GI50 (MDA-MB-435): 0.0164 µM (active)
- GI50 (786-0): 0.165 µM (active)
